Assay results published in US20110178104A1, “Anti-Heparin Compounds” (POLYMEDIX INC., priority 2010, published 2011).

Assays:
[1] = tested on: unfractionated heparin (UFH); assay: aPTT clotting assay, UFH 0.2 U/mL in plasma (Example 7); format: biochemical; details: UFH 0.2 U/mL in plasma
Description: aPTT clotting Assay. Unfractionated heparin was mixed with plasma at a final concentration of 0.2 U/mL. […] The ACL Elite Hemostasis analyzer (Beckman Coulter™) was used to add aPTT reagent (HemosIL SynthASil) to supplemented plasma. Clotting was initiated by addition of CaCl2 and time to clot was recorded.

enoxaparin (ENOX) = assay: FXa chromogenic assay (absence of plasma), enoxaparin; details: enoxaparin 0.1 μg/mL, absence of plasma
fondaparinux (FONDAPX) = assay: FXa chromogenic assay (absence of plasma), fondaparinux; details: fondaparinux 0.02 μg/mL, absence of plasma

Compound	UFH (aPTT) EC50 [1]	ENOX (FXa) EC50 (enoxaparin (ENOX))	FONDAPX (FXa) EC50 (fondaparinux (FONDAPX))
COc1ccc(C(=O)N[C@H](CCCCN)C(=O)Nc2cc(C(=O)N[C@H](CCCCN)C(=O)Nc3cc(C(=O)N[C@H](CCCCN)C(=O)Nc4cc(C(N)=O)ccc4OC)ccc3OC)ccc2OC)cc1NC(=O)[C@H](N)CCCCN [Compound 35]	30.65 µg/mL	45.00 µg/mL	inactive
N=C(N)NCCCCC(=O)Nc1cc(C(F)(F)F)cc(NC(=O)c2ccc(C(=O)Nc3cc(C(F)(F)F)cc(NC(=O)CCCCNC(=N)N)c3SCCN)cc2)c1SCCN [Compound 87]	>10 µg/mL	6.35 µg/mL	15.91 µg/mL
CN(C)CCNC(=O)c1cc(C(=O)N[C@H]2CC[C@H](NC(=O)c3cc(C(=O)NCCN(C)C)c(OCCCCCN)cc3OCCCCCN)CC2)c(OCCCCCN)cc1OCCCCCN [Compound 5]	19.76 µg/mL	23.71 µg/mL	inactive
COc1ccc(NC(=O)[C@@H](CCCNC(=N)N)NC(=O)c2cc(NC(=O)[C@@H](CCCNC(=N)N)NC(=O)c3cc(NC(=O)[C@@H](CCCNC(=N)N)NC(=O)c4cc(NC(=O)[C@H](N)CCCNC(=N)N)ccc4OCCNC(=N)N)ccc3OC)ccc2OC)cc1C(N)=O [Compound 19]	2.11 µg/mL	0.27 µg/mL	3.35 µg/mL
COc1cc(OC)c(C(=O)N[C@H]2CC[C@@H](NC(=O)c3cc(C(=O)NCCN(C)C)c(OCCCCCNC(=N)N)cc3OCCCCCNC(=N)N)CC2)cc1C(=O)N[C@H]1CC[C@@H](NC(=O)c2cc(C(=O)NCCN(C)C)c(OCCCCCNC(=N)N)cc2OCCCCCNC(=N)N)CC1 [Compound 103]	>4 µg/mL	0.23 µg/mL	0.64 µg/mL
N=C(N)NCCC[C@@H](N)C(=O)Nc1ccc(Cl)c(C(=O)N[C@H](CCCNC(=N)N)C(=O)Nc2ccc(Cl)c(C(=O)N[C@H](CCCNC(=N)N)C(=O)Nc3ccc(Cl)c(C(=O)N[C@H](CCCNC(=N)N)C(=O)Nc4ccc(Cl)c(C(N)=O)c4)c3)c2)c1 [Compound 26]	4.26 µg/mL	3.93 µg/mL	36.65 µg/mL
COc1ccc(NC(=O)[C@@H](CCCNC(=N)N)NC(=O)c2cc(NC(=O)[C@@H](CCCNC(=N)N)NC(=O)c3cc(NC(=O)[C@@H](CCCNC(=N)N)NC(=O)c4cc(NC(=O)[C@H](N)CCCNC(=N)N)ccc4OC)ccc3OC)ccc2OC)cc1C(N)=O [Compound 135]	2.79 µg/mL	0.1581 µg/mL	0.7596 µg/mL
COc1ccc(NC(=O)[C@H](CCCNC(=N)N)NC(=O)c2cc(NC(=O)[C@@H](N)CCCNC(=N)N)ccc2OC)cc1C(=O)N[C@@H](CCCNC(=N)N)C(=O)Nc1ccc(OC)c(C(=O)N[C@@H](CCCNC(=N)N)C(=O)Nc2ccc(OC)c(C(=O)N3CCCC3C(N)=O)c2)c1 (stereo partly drawn) [Compound 123]	>10 µg/mL	1.934 µg/mL	inactive
COc1cc(OC)c(C(=O)Nc2cc(C(F)(F)F)cc(NC(=O)CCCCNC(=N)N)c2SCCN)cc1C(=O)Nc1cc(C(F)(F)F)cc(NC(=O)CCCCNC(=N)N)c1SCCN [Compound 1]	inactive	0.18 µg/mL	inactive
COc1ccc(NC(=O)[C@@H](CCCNC(=N)N)NC(=O)c2cc(NC(=O)[C@@H](CCCNC(=N)N)NC(=O)c3cc(NC(=O)[C@@H](CCCNC(=N)N)NC(=O)c4cc(NC(=O)[C@@H](CCCNC(=N)N)NC(=O)CCCCNC(=N)N)ccc4OC)ccc3OC)ccc2OC)cc1C(N)=O [Compound 38]	2.37 µg/mL	0.18 µg/mL	1.94 µg/mL
CN(C)CCNC(=O)c1cc(C(=O)NCCN(C)C)c(OCCCCCN)cc1OCCCCCN [Compound 4]	inactive	47.94 µg/mL	84.66 µg/mL
COc1ccc(NC(=O)[C@@H](CCCNC(=N)N)NC(=O)c2cc(NC(=O)[C@@H](CCCNC(=N)N)NC(=O)c3cc(NC(=O)[C@@H](CCCNC(=N)N)NC(=O)c4cc(NC(=O)CCCCNC(=N)N)ccc4OC)ccc3OC)ccc2OC)cc1C(N)=O [Compound 50]	1.67 µg/mL	0.22 µg/mL	1.12 µg/mL

Second part, the compound after the results:

UFH (aPTT) EC50 [1]	ENOX (FXa) EC50 (enoxaparin (ENOX))	FONDAPX (FXa) EC50 (fondaparinux (FONDAPX))	Compound
2.58 µg/mL	0.87 µg/mL	0.86 µg/mL	COc1ccc(NC(=O)[C@@H](CCCNC(=N)N)NC(=O)c2cc(NC(=O)[C@@H](CCCNC(=N)N)NC(=O)c3cc(NC(=O)[C@@H](CCCNC(=N)N)NC(=O)c4cc(NC(=O)[C@H](N)Cc5c[nH]c6ccccc56)ccc4OC)ccc3OC)ccc2OC)cc1C(N)=O [Compound 71]
2.99 µg/mL	0.49 µg/mL	6.28 µg/mL	COc1ccc(NC(=O)[C@H](CCCNC(=N)N)NC(=O)c2cc(NC(=O)[C@H](CCCCN)NC(=O)c3cc(NC(=O)[C@H](CCCCN)NC(=O)c4cc(NC(=O)[C@@H](N)CCCCN)ccc4OC)ccc3OC)ccc2OC)cc1C(N)=O [Compound 78]
7.13 µg/mL	1.12 µg/mL	2.482 µg/mL	COc1ccc(NC(=O)[C@H](CCCCN)NC(=O)c2cc(NC(=O)[C@H](CCCCN)NC(=O)c3cc(NC(=O)[C@H](CCCCN)NC(=O)c4c[nH]c5ccccc45)ccc3OC)ccc2OC)cc1C(N)=O [Compound 100]
3.02 µg/mL	0.41 µg/mL	7.07 µg/mL	COc1ccc(NC(=O)[C@H](CCCCN)NC(=O)c2cc(NC(=O)[C@H](CCCNC(=N)N)NC(=O)c3cc(NC(=O)[C@H](CCCCN)NC(=O)c4cc(NC(=O)[C@@H](N)CCCCN)ccc4OC)ccc3OC)ccc2OC)cc1C(N)=O [Compound 79]
4.89 µg/mL	0.2306 µg/mL	0.4025 µg/mL	COc1ccc(NC(=O)[C@H](CCCCN)NC(=O)c2cc(NC(=O)[C@H](CCCCN)NC(=O)c3cc(NC(=O)[C@H](CCCCN)NC(=O)c4cc(NC(=O)[C@@H](N)CCCCN)ccc4OC)ccc3OC)ccc2OC)cc1C(=O)N[C@@H](Cc1c[nH]c2ccccc12)C(=O)O [Compound 113]
>10 µg/mL	>20 µg/mL	inactive	COc1ccc(NC(=O)[C@H](CCCCN)NC(=O)c2cc(NC(=O)[C@H](CCCCN)NC(=O)c3cc(NC(=O)[C@H](CCCCN)NC(=O)c4cc(NC(=O)[C@@H](N)CCCCN)ccc4OC)ccc3OC)ccc2SC)cc1C(N)=O [Compound 133]
2.52 µg/mL	0.4309 µg/mL	4.636 µg/mL	COc1ccc(NC(=O)[C@H](CCCNC(N)=O)NC(=O)c2cc(NC(=O)[C@H](CCCCN)NC(=O)c3cc(NC(=O)[C@H](CCCCN)NC(=O)c4cc(NC(=O)[C@@H](N)CCCCN)ccc4OC)ccc3OC)ccc2OC)cc1C(N)=O [Compound 140]
2.50 µg/mL	0.3835 µg/mL	5.47 µg/mL	COc1ccc(NC(=O)[C@H](CCCCN)NC(=O)c2cc(NC(=O)[C@H](CCCCN)NC(=O)c3cc(NC(=O)[C@H](CCCCN)NC(=O)c4cc(NC(=O)[C@@H](N)CCCCN)ccc4SC)ccc3OC)ccc2OC)cc1C(N)=O [Compound 130]
inactive	inactive	inactive	COc1ccc(NC(=O)[C@H](CCCCN)NC(=O)c2cc(NC(=O)[C@@H](N)CCCCN)ccc2OC)cc1C(=O)N[C@@H](CCCCN)C(=O)Nc1ccc(SC)c(C(=O)N[C@@H](CCCCN)C(=O)Nc2ccc(SC)c(C(N)=O)c2)c1 [Compound 141]
approx 16 μg/mL	0.8434 µg/mL	4.158 µg/mL	COc1ccc(NC(=O)[C@H](CCCCN)NC(=O)c2cc(NC(=O)[C@H](CCCCN)NC(=O)c3cc(NC(=O)[C@H](CCCCN)NC(=O)c4cc(NC(=O)[C@@H](N)Cc5c[nH]c6ccccc56)ccc4OC)ccc3OC)ccc2OC)cc1C(N)=O [Compound 101]
1.72 µg/mL	0.30 µg/mL	3.35 µg/mL	COc1ccc(NC(=O)[C@@H](CCCN)NC(=O)c2cc(NC(=O)[C@@H](CCCNC(=N)N)NC(=O)c3cc(NC(=O)[C@@H](CCCNC(=N)N)NC(=O)c4cc(NC(=O)CCCCN)ccc4OC)ccc3OC)ccc2OC)cc1C(N)=O [Compound 48]
2.91 µg/mL	0.194 µg/mL	0.8018 µg/mL	COc1ccc(NC(=O)[C@@H](CCCNC(=N)N)NC(=O)c2cc(NC(=O)[C@@H](CCCNC(=N)N)NC(=O)c3cc(NC(=O)[C@@H](CCCNC(=N)N)NC(=O)c4cc(NC(=O)[C@H](N)CCCNC(=N)N)ccc4OC)ccc3OC)ccc2OC)cc1C(N)=O [Compound 136]
3.32 µg/mL	0.3328 µg/mL	2.938 µg/mL	COc1ccc(NC(=O)[C@H](CCCCN)NC(=O)c2cc(NC(=O)[C@H](CCCCN)NC(=O)c3cc(NC(=O)[C@H](CCCCN)NC(=O)c4cc(C(=O)NCCCCCN)c(OC)cc4OC)ccc3OC)ccc2OC)cc1C(N)=O [Compound 102]
1.94 µg/mL	0.9281 µg/mL	7.052 µg/mL	COc1ccc(NC(=O)[C@H](CCCCN)NC(=O)c2cc(NC(=O)[C@H](CCCCN)NC(=O)c3cc(NC(=O)[C@H](CCCCN)NC(=O)c4cc(NC(=O)[C@@H](N)CCCCN)ccc4OC)ccc3OC)ccc2OCC(=O)O)cc1C(N)=O [Compound 117]
3.68 µg/mL	4.499 µg/mL	>20 µg/mL	COc1ccc(NC(=O)[C@H](CCCCN)NC(=O)c2cc(NC(=O)[C@H](CCCCN)NC(=O)c3cc(NC(=O)[C@H](CCCCN)NC(=O)c4cnc(N)s4)ccc3OC)ccc2OC)cc1C(N)=O [Compound 131]
